Measurements from publication PMC6960190, “Systemic Evaluation on the Pharmacokinetics of Platinum-Based Anticancer Drugs From Animal to Cell Level: Based on Total Platinum and Intact Drugs” (Frontiers in Pharmacology, 2020).
Where “and” joins values, the source holds several entries; their conditions need not be identical. Equal values may be shown once.

Key:
[1] = Pharmacokinetics of intact platinum-based drugs in rats (UPLC-MS/MS) in blood, plasma and ultrafiltrate plasma; conditions: intraperitoneal; for complete elimination time of intact drug: equal moles, plasma and ultrafiltrate plasma
Protocol: The biological samples were pretreatmented by precipitation with acetonitrile. To each 50 µl sample volume, 200 µl of acetonitrile containing IS (25 ng/ml) was added. The samples were then centrifuged for 10 min at 15,000 rpm, after which 5 µl of the supernatant was injected into the UPLC column for analysis of intact drug.
The ACQUITY UPLC I class system consisted of an autosampler, pump, column oven, and controller (waters, MA, USA). Chromatographic separation was performed on an ACQUITY UPLC BEH Amide column (Part NO:186004800, 1.7 µm, 2.1 × 50mm, Waters, MA, USA) and the pre-column is ACQUITY UPLC BEH C18 (1.7µm, Waters, MA, USA). The binary mobile phase consisted of mobile phase B: acetonitrile and mobile phase A: water containing 5 mm ammonium acetate. The injection volume was 5 µl and the column temperature was 40°C. The gradient program was as follows: 0–1 min, 95% phase B; 1–2 min, 95–70% phase B; 2–4 min,70% phase B; 4–5 min, 70–95% phase B; 5–7min, 95% phase B. The total run time is 7.0 min and the flow rate was set at 0.6 ml/min.
The UPLC system was interfaced with a Xevo TQ-XS Mass Spectrometer with MassLynx V4.2 software package (Waters, MA, USA). The mass spectrometer was operated using Turbo Spray source in positive multiple-reaction monitoring-mode (MRM) for intact drug determination. […] The optimal parameters for MS/MS conditions are as follows: capillary 2.4 kV; cone 25 V; desolvation temperature 450 °C.
The assay method was evaluated with four kinds of matrix including blood, plasma, ultrafiltrate plasma, and cell lysate. […] The precision and accuracy for three intact platinum-based drugs in blood/plasma/ultrafiltrate plasma were investigated by replicate analysis of six sets of samples at four concentration levels: 2, 5, 200, and 4,000 ng/ml. The precision and accuracy for the assay method in cell lysate were investigated at four concentration levels of 2, 5, 20, and 160 ng/ml.
(§1) Male Sprague-Dawley rats (n = 18, 200 ± 20g) were provided by Shanghai Jiesijie Experimental Animal Co., Ltd (Shanghai, China) and certificate number was scxk (hu) 2013-0006. Animals were allowed to adapt to the housing environment for 1 week prior to study. […] All animal studies were approved by the Animal Ethics Committee of China Pharmaceutical University.
(§2) Blood-sampling times were arranged as 0, 0.083, 0.5, 1, 2, 4, 8, 12, 24, 48, 72h post-dose for all three platinum-based anticancer drugs. When each time point reached, blood samples (about 800 µl) were collected from the fossa orbitalis. 150 µl of the blood was spiked into another 1.5 ml tube as the blood sample. The rest of the blood was centrifuged immediately at 8,000 rpm for 10 min and the supernatant plasma was harvested. 50 µl of the supernatant plasma was spiked into 1.5 ml for determining total platinum in plasma sample and 50 µl of the supernatant plasma was spiked into 1.5 ml tube for determining intact platinum-based drug in plasma. The remaining plasma was used to prepare ultrafiltrate plasma with Amicon® Ultra 10K Centrifugal Filter Devices, centrifuged at 14,000 g for 20 min. All the samples were stored at -80 °C until analysis.
(§3) The pharmacokinetic parameters were calculated using the software WinNonlion Version 6.4 by non-compartmental method. Statistical significance was tested by Student’s t -test. P < 0.05 was considered statistically significant, while P < 0.01 was considered highly significant.

[2] = Pharmacokinetics of total platinum in rats (ICP-MS) in blood, plasma and ultrafiltrate plasma; conditions: intraperitoneal, 16.7 nmol/kg, mean ± sd (n = 6)
Protocol: The biological samples were pretreatmented by adding 60-fold volume of ICP-MS diluent, which is an aqueous solution containing 2% nitric acid and 0.5% Triton. After vortex for 30 s, the samples were placed quietly for few minutes to obtain a clear supernatant for ICP-MS analysis of total platinum.
Platinum determination was performed with a NexION 2000 Inductively Coupled Plasma-Mass Spectrometer and a Syngistix™ Software-ES version 2.4 (PerkinElmer, USA). Instrumental settings were optimized in order to yield maximum sensitivity for platinum, with the scan mode Peak Hopping, Dwell time per AMU 50 ms and single MCA Channel. […] The assay method was evaluated with four kinds of matrix including blood, plasma, ultrafiltrate plasma, and cell lysate.
as §1, §2, §3

HCT-116 cells [3] = assay: Subcellular distribution of oxaliplatin (total Pt by ICP-MS) in HCT-116 cells; conditions: HCT-116, 200 µm oxaliplatin, within 2 h
Protocol: (§4) Human colon cancer HCT-116 and LOVO cell line was purchased from cell bank of Shanghai Institute of Biochemistry and Cell Biology (Shanghai, China). HCT-116 cells and LOVO cells were maintained as monolayer cultures respectively in McCoy’s 5a medium and F-12K medium, supplemented with 10% fetal bovine serum, 1% penicillin and streptomycin, in a water-saturated atmosphere (95% air/5% CO2) at 37°C.
(§5) We treated the cell monolayers in the same way as the uptake study above.
(§6) Finally, all the monolayers of cells treated with drug-containing medium were washed three times with cold HBSS. Then cells were harvested by 0.25% trypsin digestion and the resulting cell suspension was centrifuged at 1,000 rpm for 5 min. For the uptake and elimination studies, pellets were then diluted in appropriate volume of water and repeatedly freeze-thawed three times to obtain drug-containing cell samples. For the subcellular distribution study, the pellets were further treated according to the manufacturer’s protocol of mitochondrial/nuclear separation kit (KeyGEN BioTECH, Nanjing, China) with differential centrifugation method to prepare the isolated cytosol, nucleus, and mitochondria samples. The cytosol, nucleus, and mitochondria were dissolved in the corresponding buffer salt from the instruction. […]
(§7) All the prepared subcellular samples for cytosol, nucleus, and mitochondria are determined by ICP-MS method.

HCT-116 cells [4] = assay: Elimination of oxaliplatin in HCT-116 cells; type: in vitro ADME, Human; conditions: HCT-116, 200 µm oxaliplatin 30 min
Protocol: (§8) Cells were used for studying cellular pharmacokinetics of oxaliplatin.
(§9) Then the drug-containing medium was discarded and the cell monolayers were washed three times with cold HBSS. After that, fresh blank medium was added to the monolayers with incubation for different times of 5, 15, 30, 45, 60, 120 min.
(§10) To evaluate the elimination behavior of oxaliplatin in colon cancer cells, both oxaliplatin and total platinum of samples are determined by UPLC-MS/MS and ICP-MS method. The results are all normalized to cell protein.

LOVO cells [5] = assay: Elimination of oxaliplatin in LOVO cells; type: in vitro ADME, Human; conditions: 200 µm oxaliplatin 30 min
Protocol: as §8, §9, §10

LOVO cells [6] = assay: Subcellular distribution of oxaliplatin (total Pt by ICP-MS) in LOVO cells; conditions: 200 µm oxaliplatin, within 2 h
Protocol: as §4, §5, §6, §7

HCT-116 cells [7] = assay: Uptake of oxaliplatin (total platinum and intact drug) in HCT-116 cells
Protocol: as §4
(§11) For the temperature dependent study, the cell monolayers were treated with 4 ml drug-containing medium at 200 µm for 30 min incubation respectively at 4 °C and 37 °C.
(§12) Finally, all the monolayers of cells treated with drug-containing medium were washed three times with cold HBSS. Then cells were harvested by 0.25% trypsin digestion and the resulting cell suspension was centrifuged at 1,000 rpm for 5 min. For the uptake and elimination studies, pellets were then diluted in appropriate volume of water and repeatedly freeze-thawed three times to obtain drug-containing cell samples. For the subcellular distribution study, the pellets were further treated according to the manufacturer’s protocol of mitochondrial/nuclear separation kit (KeyGEN BioTECH, Nanjing, China) with differential centrifugation method to prepare the isolated cytosol, nucleus, and mitochondria samples. The cytosol, nucleus, and mitochondria were dissolved in the corresponding buffer salt from the instruction. An aliquot of 20 μl of each cellular or subcellular sample was removed for protein determination using BCA protein assay kit according to the manufacturer’s instructions (micro-well plate protocol).

LOVO cells [8] = assay: Uptake of oxaliplatin (total platinum and intact drug) in LOVO cells
Protocol: as §4, §11, §12

[9] = intact drug in blood, 16.7 nmol/kg, mean ± sd (n = 6)
[10] = intact drug in plasma, 16.7 nmol/kg, mean ± sd (n = 6)
[11] = intact drug in ultrafiltrate plasma, 16.7 nmol/kg, mean ± sd (n = 6)
[12] = total Pt in ultrafiltrate plasma
[13] = ng Pt/mg protein of subcellular organelles
[14] = HCT-116, 200 µm oxaliplatin, 15-120 min, normalized to cellular protein
[15] = 200 µm oxaliplatin, 15-120 min, normalized to cellular protein

Compound: N.N.O=C([O-])C1(C(=O)[O-])CCC1.[Pt+2] [carboplatin, Carboplatin]
- Cl [1, 9]: 1.1 mL/h/kg and 1.1 ± 0.1 mL/h/kg
- Cmax [1, 9]: 9.9 ± 0.45 µM
- T1/2 [1, 9]: 122 ± 7.8 min
- Vz [1, 9]: 0.0033 L/kg and 0.0033 ± 0.0004 L/kg
- Cl [1, 10]: 0.1 mL/h/kg
- Cmax [1, 10]: 11.2 ± 0.49 µM
- T1/2 [1, 10]: 117 ± 7.2 min
- Vz [1, 10]: 0.0028 L/kg and 0.0028 ± 0.0003 L/kg
- Cl [1, 11]: 1.2 mL/h/kg and 1.2 ± 0.2 mL/h/kg
- Cmax [1, 11]: 10.1 ± 0.75 µM
- T1/2 [1, 11]: 91.2 ± 29.4 min
- Tmax [1, 11]: 25.2 ± 11.4 min
- Vz [1, 11]: 0.0027 ± 0.0009 L/kg
- complete elimination time of intact drug ([1]; intact drug in blood): 12 h
- Vz ([2]; total Pt in blood): 0.009 L/kg
- Cl ([2]; total Pt in plasma): 0.33 mL/h/kg
- Vz ([2]; total Pt in plasma): 0.014 L/kg
- Cl [2, 12]: 0.67 mL/h/kg
- Vz [2, 12]: 0.016 L/kg

Compound: O=C1[O][Pt]2([NH][C@@H]3CCCC[C@H]3[NH]2)[O]C1=O [oxaliplatin, Oxaliplatin]
- subcellular accumulation of Pt in organelles over incubation time (HCT-116 cells [3]): increased with the increasing incubation time
- order of Pt concentration in cytosol, mitochondria and nucleus (HCT-116 cells [3]; [13]): the concentration of Pt in cytosol is more than that in mitochondria, followed by the concentration of Pt in nucleus
- time to complete elimination of cellular intact oxaliplatin (HCT-116 cells [4]; then blank medium): 1 h
- cellular platinum after change to blank medium (HCT-116 cells [4]; then blank medium up to 2 h): just has a little decrease in 2 h
- Cl [1, 9]: 49 mL/h/kg and 49 ± 6.6 mL/h/kg
- Cmax [1, 9]: 0.42 ± 0.06 µM
- T1/2 [1, 9]: 33 ± 2.4 min
- Vz [1, 9]: 0.0408 L/kg and 0.0408 ± 0.0058 L/kg
- Cl [1, 10]: 6.9 mL/h/kg and 6.9 ± 0.6 mL/h/kg
- Cmax [1, 10]: 3.9 ± 0.34 µM
- T1/2 [1, 10]: 10.8 ± 0 min
- Vz [1, 10]: 0.0018 L/kg and 0.0018 ± 0.0001 L/kg
- Cl [1, 11]: 7.2 mL/h/kg and 7.2 ± 1.7 mL/h/kg
- Cmax [1, 11]: 3.93 ± 0.45 µM
- T1/2 [1, 11]: 10.8 ± 0.6 min
- Vz [1, 11]: 0.0019 ± 0.0006 L/kg
- complete elimination time of intact drug ([1]; intact drug in blood): 2 h
- time to complete elimination of cellular intact oxaliplatin (LOVO cells [5]; then blank medium): 1 h
- cellular platinum after change to blank medium (LOVO cells [5]; then blank medium up to 2 h): just has a little decrease in 2 h
- subcellular accumulation of Pt in organelles over incubation time (LOVO cells [6]): increased with the increasing incubation time
- order of Pt concentration in cytosol, mitochondria and nucleus (LOVO cells [6]; [13]): the concentration of Pt in cytosol is more than that in mitochondria, followed by the concentration of Pt in nucleus
- cellular concentration of total platinum and intact oxaliplatin versus medium concentration (HCT-116 cells [7]; HCT-116, 20-500 µM oxaliplatin, 30 min): increased with increasing medium concentration of oxaliplatin
- cellular accumulation of intact oxaliplatin over incubation time (HCT-116 cells [7]; [14]): increased over incubation time at the beginning of drug treatment (0–45 min), then gradually decreased (45–120 min)
- cellular total platinum over incubation time (HCT-116 cells [7]; [14]): increased within increasing incubation time
- cellular accumulation of platinum or oxaliplatin versus temperature (HCT-116 cells [7]; HCT-116, 200 µm oxaliplatin, 30 min, 4 °C vs 37 °C, P < 0.001): significant higher at 37 °C than that at 4 °C
- cellular concentration of total platinum and intact oxaliplatin versus medium concentration (LOVO cells [8]; 20-500 µM oxaliplatin, 30 min): increased with increasing medium concentration of oxaliplatin
- cellular accumulation of intact oxaliplatin over incubation time (LOVO cells [8]; [15]): increased over incubation time at the beginning of drug treatment (0–45 min), then gradually decreased (45–120 min)
- cellular total platinum over incubation time (LOVO cells [8]; [15]): increased within increasing incubation time
- cellular accumulation of platinum or oxaliplatin versus temperature (LOVO cells [8]; 200 µm oxaliplatin, 30 min, 4 °C vs 37 °C, P < 0.001): significant higher at 37 °C than that at 4 °C
- Vz ([2]; total Pt in blood): 0.001 L/kg
- Cl ([2]; total Pt in plasma): 0.1 mL/h/kg
- Vz ([2]; total Pt in plasma): 0.004 L/kg
- Cl [2, 12]: 1.4 mL/h/kg
- Vz [2, 12]: 0.038 L/kg
